Literature values as cited in patent publication US20160354364A1, “Pharmaceutical Compositions” (Alpharma Pharmaceuticals LLC, priority 2008, published 2016).

Conditions: in vivo

SMILES: O=C1CC[C@@]2(O)[C@H]3Cc4ccc(O)c5c4[C@@]2(CCN3CC2CC2)[C@H]1O5 [Naltrexone, naltrexone]
- time of absorption following oral administration: ≤ 1 h
